Data: patent US20020110830A1, “VEGF responsive cell-based assay for determining VEGF bioactivity” (priority 2001, published 2002)

Target: T1, FLK-1 VEGF receptor (Mus musculus, UniProt P35918)
T1 construct: expressed in transfected cells; host or cells: HeLa (HLR-ELK-1, Stratagene) stably co-transfected with the FLK-1 expression vector; clone #5
Experiment: VEGF responsive luciferase assay in VEGF-receptor stable transfected HLR-ELK-1 cell line (clone #5)
Type: cell-based
Settings: FIG. 9
From the text: The assay of the present invention utilizes a stable VEGF responsive cell line which comprises HeLa cells which have been stably transfected with a reporter vector having an expressible reporter element and a DNA binding element disposed adjacent thereto. Preferably, the reporter vector includes a gene encoding a detectable gene product which is disposed downstream of a basic promoter element, preferably a TATA box, which is joined to the binding element which is preferably a GAL4 binding element. […]
In general, utilizing known signal transduction relationships and/or pathways, a sample to be assayed for VEGF bioactivity is placed in a container containing the stable cell line as described above. […] Activated FLK-1, which is a known VEGF receptor, then activates MAP kinase (Kroll and Waltenberger, J. Biol. Chem., 1997:272:32521-32527; Doanes et. al., Biochem. Biophys. Res. Comm., 1999;255:545-548. The activated MAP kinase phosphorylates the fusion trans-activation protein (GAL4 DNA binding domain [dbd] fused with ELK-1). The phosphorylated fusion protein binds to the GAL4 DNA binding site of the reported vector activating luciferase expression. Luciferase expression can be detected utilizing techniques well-known in the art. The presence or expression of luciferase indicates VEGF activity in the sample. […]

T1 sequence (P35918 20-1345): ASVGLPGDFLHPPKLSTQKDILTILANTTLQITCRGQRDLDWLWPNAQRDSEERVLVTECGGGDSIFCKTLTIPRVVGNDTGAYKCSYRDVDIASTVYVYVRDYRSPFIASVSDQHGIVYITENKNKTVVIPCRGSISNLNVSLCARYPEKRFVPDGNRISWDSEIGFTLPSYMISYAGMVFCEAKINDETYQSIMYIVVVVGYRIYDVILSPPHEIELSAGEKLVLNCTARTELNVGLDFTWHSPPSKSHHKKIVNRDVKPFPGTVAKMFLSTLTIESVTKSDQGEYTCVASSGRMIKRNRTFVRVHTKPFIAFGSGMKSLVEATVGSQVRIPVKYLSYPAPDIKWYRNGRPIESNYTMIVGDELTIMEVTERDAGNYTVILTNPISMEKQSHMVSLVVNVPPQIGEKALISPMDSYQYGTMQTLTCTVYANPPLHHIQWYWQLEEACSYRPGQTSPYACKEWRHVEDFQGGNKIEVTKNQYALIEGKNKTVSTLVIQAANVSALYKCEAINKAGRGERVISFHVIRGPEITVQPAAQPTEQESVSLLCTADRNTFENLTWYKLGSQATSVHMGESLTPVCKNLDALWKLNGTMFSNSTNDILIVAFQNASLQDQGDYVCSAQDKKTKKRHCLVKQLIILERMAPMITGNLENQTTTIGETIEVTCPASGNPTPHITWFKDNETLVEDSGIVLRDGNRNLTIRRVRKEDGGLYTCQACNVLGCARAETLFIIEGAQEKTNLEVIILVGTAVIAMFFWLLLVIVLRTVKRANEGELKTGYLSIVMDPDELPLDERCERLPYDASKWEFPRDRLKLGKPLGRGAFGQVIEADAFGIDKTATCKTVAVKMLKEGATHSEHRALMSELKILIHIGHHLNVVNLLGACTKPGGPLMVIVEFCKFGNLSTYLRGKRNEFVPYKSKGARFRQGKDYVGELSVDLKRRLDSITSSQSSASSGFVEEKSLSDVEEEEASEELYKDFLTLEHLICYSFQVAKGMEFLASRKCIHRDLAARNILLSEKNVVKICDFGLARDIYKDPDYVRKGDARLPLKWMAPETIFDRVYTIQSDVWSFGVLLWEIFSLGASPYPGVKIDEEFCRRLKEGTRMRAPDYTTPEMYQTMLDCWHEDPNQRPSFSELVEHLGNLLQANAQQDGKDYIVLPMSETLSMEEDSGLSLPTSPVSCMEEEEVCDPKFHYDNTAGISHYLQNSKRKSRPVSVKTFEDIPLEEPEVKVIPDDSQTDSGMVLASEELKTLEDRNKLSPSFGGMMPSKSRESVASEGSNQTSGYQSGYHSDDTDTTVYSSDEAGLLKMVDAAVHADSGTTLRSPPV

COc1cc2c(Nc3ccc(Br)cc3F)ncnc2cc1OCCn1ccnn1 [ZD4190]
effect on VEGF stimulation of luciferase expression: affected luciferase expression in a dose-response manner
